Experiments:
[1] = test system: Mus musculus; test: Ex vivo receptor occupancy at GluN2B receptor in CD-1 mouse forebrain membranes assessed as reduction in [3H]Ro 25-6981 receptor labeling at 0.1 to 1 mg/kg, iv incubated for 5 mins by topcount micro scintillation counting method; type: functional
[2] = Dissociation constant, pKa of the compound by spectrophotometric method; type: physicochemical
[3] = target: Glutamate receptor ionotropic, NMDA 2B (Rattus norvegicus, UniProt Q00960); test: Displacement of [3H]Ro 25-6981 from GluN2B receptor in Sprague-Dawley rat forebrain membranes incubated for 1 hr by topcount micro scintillation counting method; set-up: species or system Membrane
[4] = Plasma concentration in CD-1 mouse at 0.3 mg/kg, iv; type: ADME, organism-based; conditions: in vivo
[5] = Plasma concentration in CD-1 mouse at 0.1 to 1 mg/kg, iv; type: ADME, organism-based; conditions: in vivo
[6] = Fraction unbound in rat plasma; type: ADME, cell-free
[7] = Fraction unbound in human plasma; type: ADME, cell-free
[8] = test system: Mus musculus; test: Ex vivo receptor occupancy at GluN2B receptor in CD-1 mouse forebrain membranes assessed as reduction in [3H]Ro 25-6981 receptor labeling at 0.3 mg/kg, iv incubated for 5 mins by topcount micro scintillation counting method; type: functional
[9] = test system: Mus musculus; test: Antidepressant activity in CD-1 mouse assessed as decrease in immobility time administered iv 15 mins prior to test measured for 6 mins observation by forced swim test; type: functional
[10] = Fraction unbound in mouse plasma; type: ADME, cell-free
[11] = Plasma concentration in CD-1 mouse at 1 mg/kg, iv; type: ADME, organism-based; conditions: in vivo
[12] = target: Glutamate receptor ionotropic, NMDA 2B (Homo sapiens, UniProt Q05586+Q13224); test: Negative allosteric modulation of human GluN2B receptor expressed in Xenopus laevis oocytes assessed as inhibition of glutamate/glycine-induced channel current after 15 to 20 mins by two electrode voltage clamp based electrophysiology assay; type: cell-based
[13] = test system: Mus musculus; test: Ex vivo receptor occupancy at GluN2B receptor in CD-1 mouse forebrain membranes assessed as reduction in [3H]Ro 25-6981 receptor labeling at 1 mg/kg, iv incubated for 5 mins by topcount micro scintillation counting method; type: functional
[14] = target: Voltage-gated inwardly rectifying potassium channel KCNH2 (Homo sapiens, UniProt Q12809); test: Inhibition of human ERG expressed in HEK293 cells assessed as reduction in peak tail current after 2 to 5 mins by patch clamp based electrophysiology assay; type: cell-based
[15] = test system: Mus musculus; test: Ex vivo receptor occupancy at GluN2B receptor in CD-1 mouse forebrain membranes assessed as reduction in [3H]Ro 25-6981 receptor labeling administered iv incubated for 5 mins by topcount micro scintillation counting method; type: functional, organism-based; conditions: Membrane

Chain of Glutamate receptor ionotropic, NMDA 2B (Homo sapiens, UniProt Q05586+Q13224) (Q13224 whole entry, one chain of several): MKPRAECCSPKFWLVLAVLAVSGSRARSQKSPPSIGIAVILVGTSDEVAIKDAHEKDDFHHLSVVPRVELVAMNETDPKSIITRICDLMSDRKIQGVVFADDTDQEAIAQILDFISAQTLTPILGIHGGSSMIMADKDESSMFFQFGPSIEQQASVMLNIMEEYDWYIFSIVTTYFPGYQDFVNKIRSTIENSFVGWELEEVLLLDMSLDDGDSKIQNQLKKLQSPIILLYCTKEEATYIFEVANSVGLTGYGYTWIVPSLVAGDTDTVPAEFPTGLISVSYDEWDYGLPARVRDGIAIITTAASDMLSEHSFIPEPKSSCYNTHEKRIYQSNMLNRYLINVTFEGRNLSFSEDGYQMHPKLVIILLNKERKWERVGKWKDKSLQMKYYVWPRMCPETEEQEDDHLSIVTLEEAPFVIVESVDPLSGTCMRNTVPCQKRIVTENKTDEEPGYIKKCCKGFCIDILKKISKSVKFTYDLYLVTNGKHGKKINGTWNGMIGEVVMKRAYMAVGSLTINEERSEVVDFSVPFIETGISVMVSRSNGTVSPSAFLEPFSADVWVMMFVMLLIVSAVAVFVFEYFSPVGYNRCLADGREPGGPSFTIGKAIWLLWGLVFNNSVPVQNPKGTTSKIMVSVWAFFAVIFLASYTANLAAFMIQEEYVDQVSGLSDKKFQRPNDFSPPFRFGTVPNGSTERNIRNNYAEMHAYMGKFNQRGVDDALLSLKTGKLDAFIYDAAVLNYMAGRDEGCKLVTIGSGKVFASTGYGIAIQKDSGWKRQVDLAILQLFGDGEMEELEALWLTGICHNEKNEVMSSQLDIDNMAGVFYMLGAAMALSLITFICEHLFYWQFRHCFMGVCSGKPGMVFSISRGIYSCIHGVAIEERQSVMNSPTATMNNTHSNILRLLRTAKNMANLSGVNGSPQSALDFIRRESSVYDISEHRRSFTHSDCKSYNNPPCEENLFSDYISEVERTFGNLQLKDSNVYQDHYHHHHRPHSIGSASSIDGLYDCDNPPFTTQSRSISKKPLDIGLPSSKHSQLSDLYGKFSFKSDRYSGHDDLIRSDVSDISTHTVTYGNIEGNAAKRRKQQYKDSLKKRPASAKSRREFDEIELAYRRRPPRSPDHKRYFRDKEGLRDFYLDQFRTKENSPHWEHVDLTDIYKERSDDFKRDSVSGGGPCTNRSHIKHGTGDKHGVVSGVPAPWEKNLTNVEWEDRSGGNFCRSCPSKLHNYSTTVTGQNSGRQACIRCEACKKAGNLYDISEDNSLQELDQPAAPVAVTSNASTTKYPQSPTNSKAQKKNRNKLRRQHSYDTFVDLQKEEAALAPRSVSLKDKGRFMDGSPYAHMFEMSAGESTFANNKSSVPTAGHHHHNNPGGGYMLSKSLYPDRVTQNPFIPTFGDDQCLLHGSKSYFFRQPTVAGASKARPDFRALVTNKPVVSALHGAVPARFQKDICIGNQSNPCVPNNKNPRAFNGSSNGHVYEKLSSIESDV
Chain of Voltage-gated inwardly rectifying potassium channel KCNH2 (Q12809 whole entry): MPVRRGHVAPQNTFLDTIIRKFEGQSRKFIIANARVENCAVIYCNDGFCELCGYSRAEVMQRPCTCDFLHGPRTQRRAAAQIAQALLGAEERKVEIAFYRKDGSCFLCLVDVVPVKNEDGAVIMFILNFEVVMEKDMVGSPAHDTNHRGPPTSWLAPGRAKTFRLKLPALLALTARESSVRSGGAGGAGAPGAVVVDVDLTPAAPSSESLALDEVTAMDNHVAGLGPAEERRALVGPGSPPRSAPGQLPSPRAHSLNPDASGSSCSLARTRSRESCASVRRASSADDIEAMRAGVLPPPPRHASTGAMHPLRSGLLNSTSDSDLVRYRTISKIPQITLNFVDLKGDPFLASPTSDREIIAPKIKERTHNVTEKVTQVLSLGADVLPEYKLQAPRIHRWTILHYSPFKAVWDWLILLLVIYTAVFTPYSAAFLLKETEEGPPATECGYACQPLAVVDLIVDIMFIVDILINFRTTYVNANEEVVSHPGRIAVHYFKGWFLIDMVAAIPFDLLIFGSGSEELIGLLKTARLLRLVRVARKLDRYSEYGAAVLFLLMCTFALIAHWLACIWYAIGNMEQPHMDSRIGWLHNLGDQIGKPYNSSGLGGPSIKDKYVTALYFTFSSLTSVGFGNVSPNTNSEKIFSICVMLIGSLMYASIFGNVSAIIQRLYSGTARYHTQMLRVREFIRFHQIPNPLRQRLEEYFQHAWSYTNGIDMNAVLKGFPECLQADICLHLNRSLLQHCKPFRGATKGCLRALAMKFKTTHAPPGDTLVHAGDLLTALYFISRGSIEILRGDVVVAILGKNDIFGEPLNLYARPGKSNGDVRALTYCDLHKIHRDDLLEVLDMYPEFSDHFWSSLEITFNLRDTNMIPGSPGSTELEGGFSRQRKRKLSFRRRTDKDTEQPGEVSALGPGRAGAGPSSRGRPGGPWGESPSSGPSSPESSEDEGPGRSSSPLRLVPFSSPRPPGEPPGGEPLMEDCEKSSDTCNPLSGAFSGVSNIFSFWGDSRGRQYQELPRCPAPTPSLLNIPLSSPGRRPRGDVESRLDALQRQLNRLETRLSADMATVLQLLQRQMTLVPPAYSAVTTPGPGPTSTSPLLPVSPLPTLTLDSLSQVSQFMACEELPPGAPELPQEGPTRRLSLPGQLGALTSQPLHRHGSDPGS
Chain of Glutamate receptor ionotropic, NMDA 2B (Rattus norvegicus, UniProt Q00960) (Q00960 whole entry): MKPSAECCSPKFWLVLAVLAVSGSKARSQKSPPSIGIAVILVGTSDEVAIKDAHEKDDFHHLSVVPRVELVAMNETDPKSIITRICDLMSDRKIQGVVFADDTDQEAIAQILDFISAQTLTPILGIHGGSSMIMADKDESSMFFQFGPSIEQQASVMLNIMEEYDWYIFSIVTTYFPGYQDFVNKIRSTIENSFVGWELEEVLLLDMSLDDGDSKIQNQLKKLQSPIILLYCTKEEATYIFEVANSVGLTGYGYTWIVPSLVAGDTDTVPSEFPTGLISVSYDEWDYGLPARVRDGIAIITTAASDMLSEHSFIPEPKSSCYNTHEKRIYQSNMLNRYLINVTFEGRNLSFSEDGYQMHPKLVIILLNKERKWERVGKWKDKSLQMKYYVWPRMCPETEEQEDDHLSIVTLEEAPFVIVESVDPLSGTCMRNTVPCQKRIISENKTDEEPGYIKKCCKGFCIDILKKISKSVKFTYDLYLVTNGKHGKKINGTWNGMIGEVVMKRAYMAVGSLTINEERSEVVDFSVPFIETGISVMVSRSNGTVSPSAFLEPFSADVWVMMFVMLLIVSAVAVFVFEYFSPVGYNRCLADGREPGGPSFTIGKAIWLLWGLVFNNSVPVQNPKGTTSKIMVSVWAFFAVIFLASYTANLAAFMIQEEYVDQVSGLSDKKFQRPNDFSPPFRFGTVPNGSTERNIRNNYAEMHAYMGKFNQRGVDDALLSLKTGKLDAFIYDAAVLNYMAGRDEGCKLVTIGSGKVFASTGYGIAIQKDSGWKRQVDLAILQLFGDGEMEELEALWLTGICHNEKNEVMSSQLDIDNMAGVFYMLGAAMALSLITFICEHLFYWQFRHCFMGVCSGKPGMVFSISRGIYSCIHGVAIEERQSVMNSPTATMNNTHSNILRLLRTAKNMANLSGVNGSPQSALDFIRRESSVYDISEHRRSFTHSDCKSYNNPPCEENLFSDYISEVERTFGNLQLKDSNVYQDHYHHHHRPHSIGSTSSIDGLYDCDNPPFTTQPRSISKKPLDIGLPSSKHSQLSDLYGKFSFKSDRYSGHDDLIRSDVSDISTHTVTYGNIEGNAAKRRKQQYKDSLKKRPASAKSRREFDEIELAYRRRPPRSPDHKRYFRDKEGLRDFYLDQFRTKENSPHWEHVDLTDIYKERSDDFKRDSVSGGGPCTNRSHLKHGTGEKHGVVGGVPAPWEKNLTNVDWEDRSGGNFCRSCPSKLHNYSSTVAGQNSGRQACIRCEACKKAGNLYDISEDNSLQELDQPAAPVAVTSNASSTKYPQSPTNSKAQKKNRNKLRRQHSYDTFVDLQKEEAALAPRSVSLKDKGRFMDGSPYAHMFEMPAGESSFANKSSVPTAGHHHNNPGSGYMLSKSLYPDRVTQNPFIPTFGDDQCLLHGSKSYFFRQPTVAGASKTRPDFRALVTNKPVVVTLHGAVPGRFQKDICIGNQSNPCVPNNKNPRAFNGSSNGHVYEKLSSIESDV

pKa [2]: 6.8 | Ki [3]: 1.4 nM | concentration [4]: 70 nM | concentration [5]: 150 nM | fraction unbound [6]: 0.11 | fraction unbound [7]: 0.1 | fraction unbound [10]: 0.12 | concentration [11]: 340 nM | IC50 [12]: 4.2 nM | Activity [15]: Dose-dependent effect
Compound: O=C1[C@H](N2CCC(c3ccc(O)cc3)CC2)CCN1Cc1ccc(F)cc1
Occ [1]: 75% | Occ [8]: 60% | Activity [9]: Dose-dependent effect | minimal effective dose ([9]; CD-1, iv, read-out: MED): 0.56 mg/kg | Occ [13]: 95% | IC50 [14]: 620 nM
